From patent publication US12187773B2, “Modified GIP peptide analogues” (Antag Therapeutics ApS, priority 2018, dated 2025)
Where a SMILES comes first, the peptide text is derived from it. Where no end group is shown, it is not given here. The star is where a group is joined. C16 diacid = O=C(O)CCCCCCCCCCCCCCC(=O)*

Key:
Format in all cases: cell-based
human GIP receptor [1] = target: T1, human GIP receptor (Homo sapiens, UniProt P48546); assay: cAMP agonism (CisBio cAMP Dynamic 2 HTRF assay); details: HEK293, read-out: cAMP agonism, % Efficacy, Table 1C, HEK-293 cells
T1 sequence (P48546 22-466): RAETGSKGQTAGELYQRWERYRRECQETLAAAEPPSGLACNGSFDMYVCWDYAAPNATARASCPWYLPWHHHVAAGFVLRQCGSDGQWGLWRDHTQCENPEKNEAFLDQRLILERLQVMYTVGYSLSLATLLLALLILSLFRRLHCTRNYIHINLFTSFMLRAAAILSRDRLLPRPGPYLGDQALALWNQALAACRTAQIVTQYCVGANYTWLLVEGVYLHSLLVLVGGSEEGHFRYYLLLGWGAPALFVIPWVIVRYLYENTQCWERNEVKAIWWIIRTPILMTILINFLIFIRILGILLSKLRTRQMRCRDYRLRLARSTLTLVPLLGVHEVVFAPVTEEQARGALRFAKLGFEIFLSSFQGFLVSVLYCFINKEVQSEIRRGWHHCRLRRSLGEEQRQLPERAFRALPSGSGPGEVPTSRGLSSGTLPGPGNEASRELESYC
Description: To test for agonistic properties at the GIP receptor, compounds were diluted and added to cells as described above and incubated for 30 min at 37° C. The resulting increase in intracellular cAMP was determined using the CisBio cAMP Dynamic 2 HTRF Assay Kit as described above.

human GIP receptor [2] = target: T1, human GIP receptor; assay: cAMP accumulation, agonism (DiscoveRx HitHunter cAMP XS assay); parameters: host or cells: COS-7 (transient, calcium phosphate; pCMV-Script vector); details: COS-7, read-out: cAMP agonism, Emax
Description: (§1) Transient transfected COS-7 cells expressing the human GIP receptor were seeded in white 96-well plates with a density of 3.5*10^4/well. The day after, the cells were washed twice with Hepes buffered saline (HBS) buffer and incubated with HBS and 1 mM 3-isobutyl-1-methylxanthine (IBMX) for 30 min at 37° C. To test for agonistic properties, ligands were added and incubated for 30 min at 37° C. In order to test for antagonistic properties, the cells were preincubated with the antagonists for 10 min prior to the addition of the agonist and subsequent incubated for 20 additional min. The HitHunter™ cAMP XS assay (DiscoveRx) was carried out according to the manufacturer's instructions.
(§2) In order to develop a GIP receptor antagonist with improved antagonistic properties, individual amino acid substitutions were conducted on GIP(3-30)NH2 and in particular at positions: 16, 18, 30 or 3, 16, 18, 30. The obtained peptides were lipidated at position 18 directly or via a linker. Both the agonistic and antagonistic profiles of the compounds were tested in cAMP accumulation experiments done in transiently transfected COS-7 cells expressing the human GIP receptor. To investigate if these mutated analogues still retained their antagonistic properties, their ability to inhibit a GIP-mediated cAMP response corresponding to 50-80% of maximum activation was examined.

human GIP receptor [3] = target: T1, human GIP receptor; assay: cAMP antagonism (CisBio cAMP Dynamic 2 HTRF assay); parameters: pCMV-Script vector; details: Table 1C; CisBio; HEK-293 cells
Description: The in vitro functional activity of compounds towards human GIP receptor can also be determined in HEK-293 cells transiently expressing the receptor. On the day of the assay, cells were resuspended in HBSS buffer (Gibco, 14025-50) supplemented with 20 mM HEPES (Gibco, 15630-106), 0,1% Pluronic F-68 (Gibco, 24040-032) and 0,1% casein (Sigma, C4765), and plated in 384-well plates at a density of 5000 cells/well. The GIP peptide analogues of the present disclosure were diluted in HBSS buffer supplemented with 20 mM HEPES, 0,1% pluronic, 0,1% casein and 500 uM IBMX. […] The resulting decrease in intracellular cAMP was quantitatively determined using the CisBio cAMP Dynamic 2 HTRF Assay Kit. The assay is based on a competition between native cAMP produced by cells and cAMP labeled with the dye d2 for binding to a cryptate labeled antibody. The specific signal (i.e. energy transfer signal) is inversely proportional to the concentration of cAMP in the sample.
The cAMP-d2 conjugate and the antibody anti-cAMP-Cryptate, both diluted in lysis buffer provided in the kit, were added to the cells according to the manufacturer's protocol. The resulting competitive assay was incubated for 60 minutes at room temperature, and the signal was detected by using a PerkinElmer Envision® instrument with excitation at 320 nm and emission at 665 nm and 620 nm. The HTRF ratio (emission at 665 nm/620 nm*10,000) is inversely proportional to the amount of cAMP present and is converted to nM cAMP per well using a cAMP standard curve. The dose-response curves were fitted using the non-linear regression analysis (four-logistic parameter equation) in GraphPad Prism, whereby pIC50 values were estimated.

human GIP receptor [4] = target: T1, human GIP receptor; assay: cAMP accumulation, antagonism (DiscoveRx HitHunter cAMP XS assay); parameters: host or cells: COS-7 (transient, calcium phosphate; pCMV-Script vector); details: Table 2, truncated GIP antagonists
Description: as §1, §2

Molecule	Emax (human GIP receptor [1]) [%]	Emax (human GIP receptor [2]) [%]	cAMP antagonism, % inhib (human GIP receptor [3]) [%]	cAMP antagonism, % inhib (human GIP receptor [4]) [%]	IC50 (human GIP receptor [4]; cAMP antagonism, nM (IC50)) [nM]	cAMP antagonism, nM (IC50) (human GIP receptor [4])
CC[C@H](C)[C@H](NC(=O)[C@H](CO)NC(=O)[C@H](Cc1ccc(O)cc1)NC(=O)[C@H](CC(=O)O)NC(=O)[C@H](CO)NC(=O)[C@@H](NC(=O)[C@H](Cc1ccccc1)NC(=O)[C@@H](N)[C@@H](C)O)[C@@H](C)CC)C(=O)N[C@@H](C)C(=O)N[C@@H](CC(C)C)C(=O)N[C@@H](CC(=O)O)C(=O)N[C@@H](CCCNC(=N)N)C(=O)N[C@H](C(=O)N[C@@H](CCCCNC(=O)CC[C@H](NC(=O)COCCOCCNC(=O)CCCCCCCCCCCCCCC(=O)O)C(=O)O)C(=O)N[C@@H](CCC(N)=O)C(=O)N[C@@H](CCC(N)=O)C(=O)N[C@@H](CC(=O)O)C(=O)N[C@@H](Cc1ccccc1)C(=O)N[C@H](C(=O)N[C@@H](CC(N)=O)C(=O)N[C@@H](Cc1c[nH]c2ccccc12)C(=O)N[C@@H](CC(C)C)C(=O)N[C@@H](CC(C)C)C(=O)N[C@@H](C)C(=O)N[C@@H](CCC(N)=O)C(=O)N[C@@H](CCCNC(=N)N)C(N)=O)C(C)C)[C@@H](C)CC [AT234] (HELM PEPTIDE1{T.F.I.S.D.Y.S.I.A.L.D.R.I.K.Q.Q.D.F.V.N.W.L.L.A.Q.R.[am]}|PEPTIDE2{[O=C(O)CCCCCCCCCCCCCCC(=O)[*:2]].[O=C(COCCOCCN[*:1])[*:2]].[gGlu]}$PEPTIDE1,PEPTIDE2,14:R3-3:R2$$$V2.0; N-terminus assumed)	0	26	–	–	–	–
CC[C@H](C)[C@H](NC(=O)[C@H](CO)NC(=O)[C@H](Cc1ccc(O)cc1)NC(=O)[C@H](CC(=O)O)NC(=O)[C@H](CO)NC(=O)[C@@H](NC(=O)[C@H](Cc1ccccc1)NC(=O)[C@@H](NC(=O)CNC(=O)CN)[C@@H](C)O)[C@@H](C)CC)C(=O)N[C@@H](C)C(=O)N[C@@H](CCSC)C(=O)N[C@@H](CC(=O)O)C(=O)N[C@@H](CCCNC(=N)N)C(=O)N[C@H](C(=O)N[C@@H](CCCCNC(=O)CCCCCCCCCCCCCCC(=O)O)C(=O)N[C@@H](CCC(N)=O)C(=O)N[C@@H](CCC(N)=O)C(=O)N[C@@H](CC(=O)O)C(=O)N[C@@H](Cc1ccccc1)C(=O)N[C@H](C(=O)N[C@@H](CC(N)=O)C(=O)N[C@@H](Cc1c[nH]c2ccccc12)C(=O)N[C@@H](CC(C)C)C(=O)N[C@@H](CC(C)C)C(=O)N[C@@H](C)C(=O)N[C@@H](CCC(N)=O)C(=O)N[C@@H](CCCNC(=N)N)C(=O)O)C(C)C)[C@@H](C)CC [AT257] (H-GGTFISDYSIAMDRIK(C16 diacid)QQDFVNWLLAQR-OH; N-terminus assumed)	5	4	–	–	–	–
CC[C@H](C)[C@H](N)C(=O)N[C@@H](CO)C(=O)N[C@@H](CC(=O)O)C(=O)N[C@@H](Cc1ccc(O)cc1)C(=O)N[C@@H](CO)C(=O)N[C@H](C(=O)N[C@@H](C)C(=O)N[C@@H](CCSC)C(=O)N[C@@H](CC(=O)O)C(=O)N[C@@H](CCCCN)C(=O)N[C@H](C(=O)N[C@@H](CCCCNC(=O)CCCCCCCCCCCCCCC(=O)O)C(=O)N[C@@H](CCC(N)=O)C(=O)N[C@@H](CCC(N)=O)C(=O)N[C@@H](CC(=O)O)C(=O)N[C@@H](Cc1ccccc1)C(=O)N[C@H](C(=O)N[C@@H](CC(N)=O)C(=O)N[C@@H](Cc1c[nH]c2ccccc12)C(=O)N[C@@H](CC(C)C)C(=O)N[C@@H](CC(C)C)C(=O)N[C@@H](C)C(=O)N[C@@H](CCC(N)=O)C(=O)N[C@@H](CCCCN)C(N)=O)C(C)C)[C@@H](C)CC)[C@@H](C)CC [AT354] (H-ISDYSIAMDKIK(C16 diacid)QQDFVNWLLAQK-NH2; N-terminus assumed)	0	–	91	100.0	10	–
CC[C@H](C)[C@H](NC(=O)[C@H](CO)NC(=O)[C@H](Cc1ccc(O)cc1)NC(=O)[C@H](CC(=O)O)NC(=O)[C@@H](N)CO)C(=O)N[C@@H](C)C(=O)N[C@@H](CCSC)C(=O)N[C@@H](CC(=O)O)C(=O)N[C@@H](CCCCN)C(=O)N[C@H](C(=O)N[C@@H](CCCCNC(=O)CCCCCCCCCCCCCCC(=O)O)C(=O)N[C@@H](CCC(N)=O)C(=O)N[C@@H](CCC(N)=O)C(=O)N[C@@H](CC(=O)O)C(=O)N[C@@H](Cc1ccccc1)C(=O)N[C@H](C(=O)N[C@@H](CC(N)=O)C(=O)N[C@@H](Cc1c[nH]c2ccccc12)C(=O)N[C@@H](CC(C)C)C(=O)N[C@@H](CC(C)C)C(=O)N[C@@H](C)C(=O)N[C@@H](CCC(N)=O)C(=O)N[C@@H](CCCCN)C(N)=O)C(C)C)[C@@H](C)CC [AT355] (H-SDYSIAMDKIK(C16 diacid)QQDFVNWLLAQK-NH2; N-terminus assumed)	0	–	65	100.0	–	–
CC[C@H](C)[C@H](NC(=O)[C@H](CO)NC(=O)[C@@H](N)Cc1ccc(O)cc1)C(=O)N[C@@H](C)C(=O)N[C@@H](CCSC)C(=O)N[C@@H](CC(=O)O)C(=O)N[C@@H](CCCCN)C(=O)N[C@H](C(=O)N[C@@H](CCCCNC(=O)CCCCCCCCCCCCCCC(=O)O)C(=O)N[C@@H](CCC(N)=O)C(=O)N[C@@H](CCC(N)=O)C(=O)N[C@@H](CC(=O)O)C(=O)N[C@@H](Cc1ccccc1)C(=O)N[C@H](C(=O)N[C@@H](CC(N)=O)C(=O)N[C@@H](Cc1c[nH]c2ccccc12)C(=O)N[C@@H](CC(C)C)C(=O)N[C@@H](CC(C)C)C(=O)N[C@@H](C)C(=O)N[C@@H](CCC(N)=O)C(=O)N[C@@H](CCCCN)C(N)=O)C(C)C)[C@@H](C)CC [AT357] (H-YSIAMDKIK(C16 diacid)QQDFVNWLLAQK-NH2; N-terminus assumed)	0	–	40	100.0	–	–
AT356: GIP 9-30, C-term NH2, C16-diacid at position 18, [H18K] (DYSIAMDKIK(C16 diacid)QQDFVNWLLAQK-NH2; N-terminus assumed; SMILES CC[C@H](C)[C@H](NC(=O)[C@H](CO)NC(=O)[C@H](Cc1ccc(O)cc1)NC(=O)[C@@H](N)CC(=O)O)C(=O)N[C@@H](C)C(=O)N[C@@H](CCSC)C(=O)N[C@@H](CC(=O)O)C(=O)N[C@@H](CCCCN)C(=O)N[C@H](C(=O)N[C@@H](CCCCNC(=O)CCCCCCCCCCCCCCC(=O)O)C(=O)N[C@@H](CCC(N)=O)C(=O)N[C@@H](CCC(N)=O)C(=O)N[C@@H](CC(=O)O)C(=O)N[C@@H](Cc1ccccc1)C(=O)N[C@H](C(=O)N[C@@H](CC(N)=O)C(=O)N[C@@H](Cc1c[nH]c2ccccc12)C(=O)N[C@@H](CC(C)C)C(=O)N[C@@H](CC(C)C)C(=O)N[C@@H](C)C(=O)N[C@@H](CCC(N)=O)C(=O)N[C@@H](CCCCN)C(N)=O)C(C)C)[C@@H](C)CC)	–	–	–	–	–	No antagonism
